The source of these data is US20100092479A1, “Compositions and methods for treatment of viral diseases” (CombinatoRx (Singapore) Pte. Ltd., priority 2008, published 2010).

For this experiment, the system named is HCV RNA. Description: HCV RNA copy number by RT-qPCR in Huh-luc/neo-ET cells. In kind it is cell-based. Particulars: 72 hr treatment. The protocol: Measurement of HCV RNA levels in response to drug were carried out by first seeding Huh-luc/neo-ET cells in 100 μl of medium at 7,500 cells per well for 72 hour drug treatments and allowed to adhere overnight for approximately 20 hours. Compounds were added at a 1:1000 dilution in duplicate and added to cells in 3 separate experiments. Total RNA was harvested using an RNeasy 96-well kit (Qiagen) according to the manufacturer's protocol and quantified using the Quant-iT™ RiboGreen® RNA Reagent (Invitrogen). Purified RNA (4 μl) was added to TaqMan reactions containing 10 μl of QuantiTect Probe RT-PCR Master Mix (Qiagen) and 0.2 μL, of QuantiTect RT Mix. […] All 20 μl reactions were assayed in an Eppy Twin-Tec skirted PCR plate (Eppendorf) and subjected to quantitative one-step RT-PCR with an Eppendorf Realplex4 qPCR machine (Eppendorf) using the following program: 50° C. for 30 min, 95° C. for 15 min, and 40 cycles of 95° C. for 15 s followed by 60° C. for 1 min 15 s. Absolute quantification of HCV RNA copy number was determined by comparing PCR signals to a standard curve generated from dilutions of a 160 by PCR-amplified fragment of the 5′NTR of HCV. […] All qPCR samples quantified by comparison to the standard curve were subsequently normalized to total RNA per sample to account for variations in sample purification and preparation steps. […]
(In general: Quantitative PCR measures a nucleic acid by following its amplification.)

Regarding `C=C(CC[C@]12O[C@H](C(=O)O)[C@@](O)(C(=O)O)[C@](C(=O)O)(O1)[C@H](OC(=O)/C=C/[C@@H](C)C[C@@H](C)CC)[C@H]2O)[C@@H](OC(C)=O)[C@H](C)Cc1ccccc1` [Squalestatin], the “effect on HCV RNA replication (viral RNA copy number normalized to total RNA)” value is recorded as “proviral effects”.
